The supplement of paper PMC8671470

Experiments:
Conditions in all cases: 72 h
NOMO-1 = test system: NOMO-1
Procedure, shortened: (§1)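 The IC50 was derived from log-logistic dose–response fitting. Each of fifteen myeloid leukaemia cell lines, seeded in RPMI 1640 within its linear growth range, was exposed in 384-well plates to five tenfold doses (1 to 10,000 nM) in duplicate for 72 h at 37 °C and 5% CO2. Luminescent ATP viability readings were normalised to vehicle and to a positive control at 10 µM before four-parameter curve fitting.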

HL-60 = test system: HL-60
Procedure, shortened: as §1

MOLM-13 = test system: MOLM-13
Procedure, shortened: as §1

THP-1 = test system: THP-1
Procedure, shortened: as §1

HEL = test system: HEL
Procedure, shortened: as §1

KU-812 = test system: KU-812
Procedure, shortened: as §1

KG-1 = test system: KG-1
Procedure, shortened: as §1

MV4-11 = test system: MV4-11
Procedure, shortened: as §1

BV-173 = test system: BV-173
Procedure, shortened: as §1

SHI-1 = test system: SHI-1
Procedure, shortened: as §1

K-562 = test system: K-562
Procedure, shortened: as §1

Mono-Mac-6 = test system: Mono-Mac-6
Procedure, shortened: as §1

ML-2 = test system: ML-2
Procedure, shortened: as §1

LAMA-84 = test system: LAMA-84
Procedure, shortened: as §1

Compound | IC50 (cell viability) (NOMO-1) | IC50 (cell viability) (HL-60) | IC50 (cell viability) (MOLM-13) | IC50 (cell viability) (THP-1) | IC50 (cell viability) (HEL) | IC50 (cell viability) (KU-812) | IC50 (cell viability) (KG-1) | IC50 (cell viability) (MV4-11) | IC50 (cell viability) (BV-173) | IC50 (cell viability) (SHI-1) | IC50 (cell viability) (K-562) | IC50 (cell viability) (Mono-Mac-6) | IC50 (cell viability) (ML-2) | IC50 (cell viability) (LAMA-84)
C[C@](N)(Cc1ccc(O)cc1)C(=O)O [Metirosine] | > 10 µM | > 10 µM | > 10 µM | > 10 µM | > 10 µM | > 10 µM | > 10 µM | > 10 µM | > 10 µM | > 10 µM | > 10 µM | > 10 µM | > 10 µM | > 10 µM
CCCCCCCCCCC[C@@H](C[C@@H]1OC(=O)[C@H]1CCCCCC)OC(=O)[C@H](CC(C)C)NC=O [Orlistat] | > 10 µM | > 10 µM | > 10 µM | > 10 µM | > 10 µM | > 10 µM | > 10 µM | > 10 µM | > 10 µM | > 10 µM | > 10 µM | > 10 µM | > 10 µM | > 10 µM
COc1ccc(CNC(=O)Nc2ncc([N+](=O)[O-])s2)cc1 | > 10 µM | > 10 µM | > 10 µM | > 10 µM | > 10 µM | > 10 µM | > 10 µM | > 10 µM | > 10 µM | > 10 µM | > 10 µM | > 10 µM | > 10 µM | > 10 µM
CC(C)(C#N)c1cc(Cn2cncn2)cc(C(C)(C)C#N)c1 [Anastrozole] | > 10 µM | > 10 µM | > 10 µM | > 10 µM | > 10 µM | > 10 µM | > 10 µM | > 10 µM | > 10 µM | > 10 µM | > 10 µM | > 10 µM | > 10 µM | > 10 µM
Nc1ccccc1C(=O)C[C@H](N)C(=O)O [L-Kynurenine] | > 10 µM | > 10 µM | > 10 µM | > 10 µM | > 10 µM | > 10 µM | > 10 µM | > 10 µM | > 10 µM | > 10 µM | > 10 µM | > 10 µM | > 10 µM | > 10 µM
CCN(CC)CCCC(C)Nc1ccnc2cc(Cl)ccc12 (stereo not drawn) [Chloroquine] | > 10 µM | > 10 µM | > 10 µM | > 10 µM | > 10 µM | > 10 µM | > 10 µM | > 10 µM | > 10 µM | > 10 µM | > 10 µM | > 10 µM | > 10 µM | > 10 µM
Cl.NC(CCC(=O)Nc1ccc([N+](=O)[O-])cc1)C(=O)O (stereo not drawn) [GPNA] | > 10 µM | > 10 µM | > 10 µM | > 10 µM | > 10 µM | > 10 µM | > 10 µM | > 10 µM | > 10 µM | > 10 µM | > 10 µM | > 10 µM | > 10 µM | > 10 µM
COc1ccc2c(C(=S)N(C)CC(=O)O)cccc2c1C(F)(F)F [Tolrestat] | > 10 µM | > 10 µM | > 10 µM | > 10 µM | > 10 µM | > 10 µM | > 10 µM | > 10 µM | > 10 µM | > 10 µM | > 10 µM | > 10 µM | > 10 µM | > 10 µM
COc1ccc(-c2ccccc2)cc1NS(=O)(=O)c1cc(Cl)cc(Cl)c1O | > 10 µM | > 10 µM | > 10 µM | > 10 µM | > 10 µM | > 10 µM | > 10 µM | > 10 µM | > 10 µM | > 10 µM | > 10 µM | > 10 µM | > 10 µM | > 10 µM
CCCc1cc(-c2nc(-c3ccc(C)cc3)cs2)ccn1 [Fatostatin] | > 10 µM | 8.84 µM | > 10 µM | > 10 µM | > 10 µM | > 10 µM | 2.76 µM | > 10 µM | 6.07 µM | 4.85 µM | > 10 µM | > 10 µM | 6.69 µM | > 10 µM
NC(=O)c1cccc(-c2cccc(OC(=O)NC3CCCCC3)c2)c1 [URB-597] | > 10 µM | > 10 µM | > 10 µM | > 10 µM | > 10 µM | > 10 µM | > 10 µM | > 10 µM | > 10 µM | > 10 µM | > 10 µM | > 10 µM | > 10 µM | > 10 µM
CC(C)c1onc(-c2c(Cl)cccc2Cl)c1COc1ccc(/C=C/c2cccc(C(=O)O)c2)c(Cl)c1 [GW4064] | > 10 µM | > 10 µM | 2.34 µM | > 10 µM | > 10 µM | > 10 µM | 8.29 µM | 1.6 µM | 6.11 µM | > 10 µM | 6.26 µM | > 10 µM | > 10 µM | 4.27 µM
NCCCC(N)(C(=O)O)C(F)F (stereo not drawn) [Difluoromethylornithine] | > 10 µM | > 10 µM | > 10 µM | > 10 µM | > 10 µM | > 10 µM | > 10 µM | > 10 µM | > 10 µM | > 10 µM | > 10 µM | > 10 µM | > 10 µM | > 10 µM
Cc1coc2c1C(=O)C(=O)c1c-2ccc2c1CCCC2(C)C [Tanshinone IIA] | > 10 µM | > 10 µM | > 10 µM | > 10 µM | > 10 µM | > 10 µM | > 10 µM | > 10 µM | > 10 µM | > 10 µM | > 10 µM | > 10 µM | > 10 µM | > 10 µM
CCCCN1C[C@H](O)[C@@H](O)[C@H](O)[C@H]1CO [Miglustat] | > 10 µM | > 10 µM | > 10 µM | > 10 µM | > 10 µM | > 10 µM | > 10 µM | > 10 µM | > 10 µM | > 10 µM | > 10 µM | > 10 µM | > 10 µM | > 10 µM
O=C(NCCCCCCNC(=O)ONC1=CCCCC1)ONC1=CCCCC1 | > 10 µM | > 10 µM | > 10 µM | > 10 µM | > 10 µM | > 10 µM | > 10 µM | > 10 µM | > 10 µM | > 10 µM | > 10 µM | > 10 µM | > 10 µM | > 10 µM
N/C(=N\CCCC(N)C(=O)O)N[N+](=O)[O-] [L-NNA] | > 10 µM | > 10 µM | > 10 µM | > 10 µM | > 10 µM | > 10 µM | > 10 µM | > 10 µM | > 10 µM | > 10 µM | > 10 µM | > 10 µM | > 10 µM | > 10 µM
CC1(C)[C@@H](O[C@H]2O[C@H](C(=O)O)[C@@H](O)[C@H](O)[C@H]2O[C@@H]2O[C@H](C(=O)O)[C@@H](O)[C@H](O)[C@H]2O)CC[C@]2(C)[C@H]3C(=O)C=C4[C@@H]5C[C@@](C)(C(=O)O)CC[C@]5(C)CC[C@@]4(C)[C@]3(C)CC[C@@H]12 [Glycyrrhizin] | > 10 µM | > 10 µM | > 10 µM | > 10 µM | > 10 µM | > 10 µM | > 10 µM | > 10 µM | > 10 µM | > 10 µM | > 10 µM | > 10 µM | > 10 µM | > 10 µM
COc1ccc(C(=O)Nc2c(Cl)cncc2Cl)cc1OC1CCCC1 [Piclamilast] | > 10 µM | > 10 µM | > 10 µM | > 10 µM | > 10 µM | > 10 µM | > 10 µM | > 10 µM | > 10 µM | > 10 µM | > 10 µM | > 10 µM | > 10 µM | > 10 µM
Cc1cn([C@H]2C[C@H](O)[C@@H](COP(=O)(O)OP(=O)(O)O)O2)c(=O)[nH]c1=O [Thymidine diphosphate] | > 10 µM | > 10 µM | > 10 µM | > 10 µM | > 10 µM | > 10 µM | > 10 µM | > 10 µM | 4.03 µM | > 10 µM | > 10 µM | > 10 µM | > 10 µM | > 10 µM
O=C(O)c1cc(N=Nc2ccc(S(=O)(=O)Nc3ccccn3)cc2)ccc1O [Sulfasalazine] | > 10 µM | > 10 µM | > 10 µM | > 10 µM | > 10 µM | > 10 µM | > 10 µM | > 10 µM | > 10 µM | > 10 µM | > 10 µM | > 10 µM | > 10 µM | > 10 µM
O=C(O)c1cc(Cl)cc(Cl)c1O [3,5-Dichlorosalicylic Acid] | > 10 µM | > 10 µM | > 10 µM | > 10 µM | > 10 µM | > 10 µM | > 10 µM | > 10 µM | > 10 µM | > 10 µM | > 10 µM | > 10 µM | > 10 µM | > 10 µM
Cc1ccccc1C(C(=O)NC1CCCCC1)N(C(=O)Cn1ccnc1C)c1cccc(F)c1 (stereo not drawn) [AGI-5198] | > 10 µM | > 10 µM | > 10 µM | > 10 µM | > 10 µM | > 10 µM | > 10 µM | > 10 µM | > 10 µM | > 10 µM | > 10 µM | > 10 µM | > 10 µM | > 10 µM
O=C(O)C(=O)CBr [3-bromopyruvic acid] | > 10 µM | > 10 µM | > 10 µM | > 10 µM | > 10 µM | > 10 µM | > 10 µM | > 10 µM | > 10 µM | > 10 µM | > 10 µM | > 10 µM | > 10 µM | > 10 µM
CN(C)C(=O)[C@H](O)[C@H](Cc1ccccc1)NC(=O)c1cc2cc(Cl)ccc2[nH]1 | > 10 µM | > 10 µM | > 10 µM | > 10 µM | > 10 µM | > 10 µM | > 10 µM | > 10 µM | > 10 µM | > 10 µM | > 10 µM | > 10 µM | > 10 µM | > 10 µM
O=C(O)CCCCC(CCSCc1ccccc1)SCc1ccccc1 (stereo not drawn) [CPI-613] | > 10 µM | > 10 µM | > 10 µM | > 10 µM | > 10 µM | > 10 µM | > 10 µM | > 10 µM | > 10 µM | > 10 µM | > 10 µM | > 10 µM | > 10 µM | > 10 µM
O=c1cc(-c2ccccc2)oc2cc(O)c(O)c(O)c12 [Baicalein] | > 10 µM | 4.39 µM | > 10 µM | > 10 µM | > 10 µM | > 10 µM | 6.35 µM | > 10 µM | > 10 µM | > 10 µM | 9.24 µM | > 10 µM | 8.18 µM | > 10 µM
